Test results reported in patent US8741906B2 (priority 2011, dated 2014).
pEC50: −log10 of the molar value. Where two headings read alike, the source gives them in different places.

Columns and labels:
human CB2 receptors = target: T1, human CB2 receptors (Homo sapiens, UniProt P34972); experiment: functional cAMP assay, human CB2; assay type: cell-based; details: CHO cells expressing human CB2, cAMP; read-out: human CB2 EC50
T1 construct: expressed in transfected cells; host or cells: CHO cells
Experimental: (§1) CHO cells expressing human CB1 or CB2 receptors are seeded 17-24 hours prior to the experiment 50.000 cells per well in a black 96 well plate with flat clear bottom (Corning Costar #3904) in DMEM (Invitrogen No. 31331), 1×HT supplement, with 10% fetal calf serum and incubated at 5% CO2 and 37° C. in a humidified incubator. The growth medium was exchanged with Krebs Ringer Bicarbonate buffer with 1 mM IBMX and incubated at 30° C. for 30 min. Compounds were added to a final assay volume of 100 μl and incubated for 30 min at 30° C. Using the cAMP-Nano-TRF detection kit the assay (Roche Diagnostics) was stopped by the addition of 50 μl lysis reagent (Tris, NaCl, 1.5% Triton X100, 2.5% NP40, 10% NaN3) and 50 μl detection solutions (20 μM mAb Alexa700-cAMP 1:1, and 48 μM Ruthenium-2-AHA-cAMP) and shaken for 2 h at room temperature. The time-resolved energy transfer is measured by a TRF reader (Evotec Technologies GmbH), equipped with a ND:YAG laser as excitation source. The plate is measured twice with the excitation at 355 nm and at the emission with a delay of 100 ns and a gate of 100 ns, total exposure time 10 s at 730 (bandwidth 30 nm) or 645 nm (bandwidth 75 nm), respectively. The FRET signal is calculated as follows: FRET=T730-Alexa730-P(T645-B645) with P=Ru730-B730/Ru645-B645, where T730 is the test well measured at 730 nM, T645 is the test well measured at 645 nm, B730 and B645 are the buffer controls at 730 nm and 645 nm, respectively. cAMP content is determined from the function of a standard curve spanning from 10 μM to 0.13 nM cAMP.
(§2) EC50 values were determined using Activity Base analysis (ID Business Solution, Limited). The EC50 values for a wide range of cannabinoid agonists generated from this assay were in agreement with the values published in the scientific literature.

human CB1 receptors = target: T2, human CB1 receptors (Homo sapiens, UniProt P21554); experiment: functional cAMP assay, human CB1; assay type: cell-based
T2 construct: expressed in transfected cells; host or cells: CHO cells
Experimental: as §1, §2

[1] = CHO cells expressing human CB1, cAMP, read-out: human CB1 EC50

T1 sequence (P34972 whole entry): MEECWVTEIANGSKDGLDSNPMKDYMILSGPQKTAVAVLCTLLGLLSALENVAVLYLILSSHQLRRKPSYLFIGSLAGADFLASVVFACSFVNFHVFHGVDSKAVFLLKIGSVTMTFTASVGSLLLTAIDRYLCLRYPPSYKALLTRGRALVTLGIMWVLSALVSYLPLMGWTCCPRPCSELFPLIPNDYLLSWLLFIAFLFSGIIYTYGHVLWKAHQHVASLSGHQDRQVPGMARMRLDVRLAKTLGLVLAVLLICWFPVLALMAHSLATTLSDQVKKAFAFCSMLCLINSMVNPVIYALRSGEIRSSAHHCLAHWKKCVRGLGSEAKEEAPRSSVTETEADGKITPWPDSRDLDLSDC
T2 sequence (P21554 whole entry): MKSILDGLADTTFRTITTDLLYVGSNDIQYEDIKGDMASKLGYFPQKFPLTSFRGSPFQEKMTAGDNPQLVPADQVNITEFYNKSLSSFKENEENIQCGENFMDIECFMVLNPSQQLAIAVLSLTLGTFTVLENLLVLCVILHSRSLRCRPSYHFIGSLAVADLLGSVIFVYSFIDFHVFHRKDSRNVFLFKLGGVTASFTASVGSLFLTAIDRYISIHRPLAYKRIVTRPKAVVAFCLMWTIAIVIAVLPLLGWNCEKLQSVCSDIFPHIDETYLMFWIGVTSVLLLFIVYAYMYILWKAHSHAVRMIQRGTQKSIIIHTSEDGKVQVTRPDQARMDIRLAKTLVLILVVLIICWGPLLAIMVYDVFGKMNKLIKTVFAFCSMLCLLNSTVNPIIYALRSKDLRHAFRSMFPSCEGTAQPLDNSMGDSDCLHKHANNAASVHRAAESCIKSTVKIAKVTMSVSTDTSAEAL

SMILES	pEC50 (human CB2 receptors)	pEC50 (human CB1 receptors; [1])	pEC50 (human CB1 receptors)
CC(C)(C)c1nc(N2C[C@@H](O)[C@H](O)C2)c2nnn(Cc3ccccc3Cl)c2n1 (relative stereo) [Example 55, 1-[5-tert-Butyl-3-(2-chloro-benzyl)-3H-[1,2,3]triazolo[4,5-c]pyrimidin-7-yl]-pyrrolidine-3,4-trans-diol]	7.98	< 5.00	
CC(C)(C)c1nc(N2CCOCC2)c2nnn(Cc3ccccc3Cl)c2n1 [Example 1, 5-tert-butyl-3-(2-chlorobenzyl)-7-morpholin-4-yl-3H-[1,2,3]triazolo[4,5-d]pyrimidine]	9.22	5.97	
CC(C)(C)c1nc(N2CCCCC2)c2nnn(Cc3ccccc3Cl)c2n1 [Example 2, 5-tert-Butyl-3-(2-chloro-benzyl)-7-piperidin-1-yl-3H-[1,2,3]triazolo[4,5-d]pyrimidine]	8.80	6.26	
CC(C)(C)c1nc(N2CCC(F)(F)CC2)c2nnn(Cc3ccccc3Cl)c2n1 [Example 3, 5-tert-Butyl-3-(2-chloro-benzyl)-7-(4,4-difluoro-piperidin-1-yl)-3H-[1,2,3]triazolo[4,5-d]pyrimidine]	8.89	6.80	
CN1CCN(c2nc(C(C)(C)C)nc3c2nnn3Cc2ccccc2Cl)CC1 [Example 4, 5-tert-Butyl-3-(2-chloro-benzyl)-7-(4-methyl-piperazin-1-yl)-3H-[1,2,3]triazolo[4,5-d]pyrimidine]	8.85	6.72	
CC(C)(C)c1nc(N2CCCC2)c2nnn(Cc3ccccc3Cl)c2n1 [Example 5, 5-tert-Butyl-3-(2-chloro-benzyl)-7-pyrrolidin-1-yl-3H-[1,2,3]triazolo[4,5-d]pyrimidine]	9.52	6.20	
CC(C)(C)c1nc(N2CCC(F)(F)C2)c2nnn(Cc3ccccc3Cl)c2n1 [Example 6, 5-tert-Butyl-3-(2-chloro-benzyl)-7-(3,3-difluoro-pyrrolidin-1-yl)-3H-[1,2,3]triazolo[4,5-d]pyrimidine]	9.70	6.78	
CCNc1nc(C(C)(C)C)nc2c1nnn2Cc1ccccc1Cl [Example 7, [5-tert-Butyl-3-(2-chloro-benzyl)-3H-[1,2,3]triazolo[4,5-d]pyrimidin-7-yl]-ethyl-amine]	7.95	< 5.00	
CC(C)(C)c1nc(NC2CCCCC2)c2nnn(Cc3ccccc3Cl)c2n1 [Example 8, [5-tert-Butyl-3-(2-chloro-benzyl)-3H-[1,2,3]triazolo[4,5-d]pyrimidin-7-yl]-cyclohexyl-amine]	6.19		< 5.00
CCN(CC)c1nc(C(C)(C)C)nc2c1nnn2Cc1ccccc1Cl [Example 9, [5-tert-Butyl-3-(2-chloro-benzyl)-3H-[1,2,3]triazolo[4,5-d]pyrimidin-7-yl]-diethyl-amine]	7.75	< 5.00	
CC(C)(C)c1nc(N2CC3(COC3)C2)c2nnn(Cc3ccccc3Cl)c2n1 [Example 10, 5-tert-Butyl-3-(2-chloro-benzyl)-7-(2-oxa-6-aza-spiro[3.3]hept-6-yl)-3H-[1,2,3]triazolo[4,5-d]pyrimidine]	8.62	6.39	
CC(C)(C)c1nc(N2CCC2)c2nnn(Cc3ccccc3Cl)c2n1 [Example 11, 7-Azetidin-1-yl-5-tert-butyl-3-(2-chloro-benzyl)-3H-[1,2,3]triazolo[4,5-d]pyrimidine]	8.49	5.96	
CC(C)(C)c1nc(N2CC(F)(F)C2)c2nnn(Cc3ccccc3Cl)c2n1 [Example 12, 5-tert-Butyl-3-(2-chloro-benzyl)-7-(3,3-difluoro-azetidin-1-yl)-3H-[1,2,3]triazolo[4,5-d]pyrimidine]	8.80	5.96	
CC(C)(C)c1nc(N2CC(O)C2)c2nnn(Cc3ccccc3Cl)c2n1 [Example 13]	7.91	< 5.00	
CC1(O)CN(c2nc(C(C)(C)C)nc3c2nnn3Cc2ccccc2Cl)C1 [Example 14, 1-[5-tert-Butyl-3-(2-chloro-benzyl)-3H-[1,2,3]triazolo[4,5-d]pyrimidin-7-yl]-3-methyl-azetidin-3-ol]	8.68	5.91	
COC1CN(c2nc(C(C)(C)C)nc3c2nnn3Cc2ccccc2Cl)C1 [Example 15, 5-tert-Butyl-3-(2-chloro-benzyl)-7-(3-methoxy-azetidin-1-yl)-3H-[1,2,3]triazolo[4,5-d]pyrimidine]	8.49	6.01	
C[C@@H]1CN(c2nc(C(C)(C)C)nc3c2nnn3Cc2ccccc2Cl)C[C@H](C)O1 [Example 16, 5-tert-Butyl-3-(2-chloro-benzyl)-7-((2R,6S)-2,6-dimethyl-morpholin-4-yl)-3H-[1,2,3]triazolo[4,5-d]pyrimidine]	6.54		< 5.00
CC1COCCN1c1nc(C(C)(C)C)nc2c1nnn2Cc1ccccc1Cl (centres unmarked) [Example 17, 5-tert-Butyl-3-(2-chloro-benzyl)-7-(3-methyl-morpholin-4-yl)-3H-[1,2,3]triazolo[4,5-d]pyrimidine]	8.06	< 5.00	
CC(C)(C)c1nc(N2CCOC(CO)C2)c2nnn(Cc3ccccc3Cl)c2n1 (centres unmarked) [Example 18, {4-[5-tert-Butyl-3-(2-chloro-benzyl)-3H-[1,2,3]triazolo[4,5-d]pyrimidin-7-yl]-morpholin-2-yl}-methanol]	7.33	< 5.00	
CC(C)(C)c1nc(N2CCSC2)c2nnn(Cc3ccccc3Cl)c2n1 [Example 19, 5-tert-Butyl-3-(2-chloro-benzyl)-7-thiazolidin-3-yl-3H-[1,2,3]triazolo[4,5-d]pyrimidine]	8.77	6.88	
CC(C)(C)c1nc(N2CCSCC2)c2nnn(Cc3ccccc3Cl)c2n1 [Example 20, 5-tert-Butyl-3-(2-chloro-benzyl)-7-thiomorpholin-4-yl-3H-[1,2,3]triazolo[4,5-d]pyrimidine]	8.77	6.46	
CC(C)(C)c1nc(N2CCS(=O)(=O)CC2)c2nnn(Cc3ccccc3Cl)c2n1 [Example 21, 5-tert-Butyl-3-(2-chloro-benzyl)-7-(1,1-dioxo-1λ6-thiomorpholin-4-yl)-3H-[1,2,3]triazolo[4,5-d]pyrimidine]	8.57	6.22	
CC(C)(C)c1nc(N2CCCOCC2)c2nnn(Cc3ccccc3Cl)c2n1 [Example 22, 5-tert-Butyl-3-(2-chloro-benzyl)-7-[1,4]oxazepan-4-yl-3H-[1,2,3]triazolo[4,5-d]pyrimidine]	8.62	5.82	
CC1(C)CN(c2nc(C(C)(C)C)nc3c2nnn3Cc2ccccc2Cl)CCO1 [Example 23, 5-tert-Butyl-3-(2-chloro-benzyl)-7-(2,2-dimethyl-morpholin-4-yl)-3H-[1,2,3]triazolo[4,5-d]pyrimidine]	7.12	< 5.00	
CC(C)(C)c1nc(N2CCOCC2(C)C)c2nnn(Cc3ccccc3Cl)c2n1 [Example 24, 5-tert-Butyl-3-(2-chloro-benzyl)-7-(3,3-dimethyl-morpholin-4-yl)-3H-[1,2,3]triazolo[4,5-d]pyrimidine]	8.52	6.32	
C[C@@H]1CC[C@@H](C)N1c1nc(C(C)(C)C)nc2c1nnn2Cc1ccccc1Cl [Example 25, 5-tert-Butyl-3-(2-chloro-benzyl)-7-((2R,5R)-2,5-dimethyl-pyrrolidin-1-yl)-3H-[1,2,3]triazolo[4,5-d]pyrimidine]	7.51	6.04	
CC(C)(C)c1nc(N2CCC(F)(F)C2)c2nnn(C3COC3)c2n1 [Example 91, 5-tert-Butyl-7-(3,3-difluoro-pyrrolidin-1-yl)-3-oxetan-3-yl-3H-[1,2,3]triazolo[4,5-d]pyrimidine]	9.52		
CC(C)(C)c1nc(N2CCC(F)(F)C2)c2nnn(C(=O)c3ccccc3Cl)c2n1 [Example 92, [5-tert-Butyl-7-(3,3-difluoro-pyrrolidin-1-yl)-[1,2,3]triazolo[4,5-d]pyrimidin-3-yl]-(2-chloro-phenyl)-methanone]	6.46		
CC(C)(C)c1nc(N2C[C@@H](O)C(F)(F)C2)c2nnn(Cc3ccccc3Cl)c2n1 [Example 95, (R)-1-[5-tert-Butyl-3-(2-chloro-benzyl)-3H-[1,2,3]triazolo[4,5-d]pyrimidin-7-yl]-4,4-difluoro-pyrrolidin-3-ol]	8.82		
CC(C)(C)c1nc(N2CCC(F)(F)C2)c2nnn(S(=O)(=O)c3ccccc3Cl)c2n1 [Example 107, 5-tert-Butyl-3-(2-chloro-benzenesulfonyl)-7-(3,3-difluoro-pyrrolidin-1-yl)-3H-[1,2,3]triazolo[4,5-d]pyrimidine]	6.55		
